The test addresses T1, purified recombinant human Aggrecanase-2 (Agg2-Phe628) (Homo sapiens, UniProt Q9UNA0).
T1 construct: (Agg2-Phe628) (MW=41,737), which is a truncated form of full-length human aggrecanase-2; made in house; host or cells: CHO cells
T1 sequence (Q9UNA0 262-628 limits assumed): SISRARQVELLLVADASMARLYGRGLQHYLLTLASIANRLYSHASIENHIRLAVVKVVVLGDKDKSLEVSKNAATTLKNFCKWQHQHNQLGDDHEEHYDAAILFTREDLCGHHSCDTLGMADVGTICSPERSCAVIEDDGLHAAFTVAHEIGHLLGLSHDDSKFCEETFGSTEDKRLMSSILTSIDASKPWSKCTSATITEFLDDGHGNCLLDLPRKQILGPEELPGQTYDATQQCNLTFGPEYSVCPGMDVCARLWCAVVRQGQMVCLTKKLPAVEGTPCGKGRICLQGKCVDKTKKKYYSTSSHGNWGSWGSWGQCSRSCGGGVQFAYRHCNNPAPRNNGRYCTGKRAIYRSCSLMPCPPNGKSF
In words: Aggrecanase 2 continuous in vitro fluorescence assay. Type of test: biochemical. As to conditions: for % Inhibition: inhibitor concentration not given.

Setting [1] is: Agg2-Phe628 0.5 μg/ml, substrate 25 μM, 30° C., read-out: IC50.

pIC50: −log10 of the molar value. Like-named read-outs stand apart in the source and are kept apart here.

As a reminder, the % Inhibition is the change of the read-out against control, counted positive when it falls. For the compound `O=C1Nc2c(Cl)ccc(Cl)c2C12NN=C(c1ccccc1)S2` (stereo not shown) [Compound 40, 4,7-dichloro-5′-phenyl-3′H-spiro[indole-3,2′-[1,3,4]thiadiazol]-2(1H)-one], the “% Inhibition” value stood at 39%. One may read the pIC50 as the negative decadic logarithm of the IC50, by convention in mol/L. Consider `C=CCN1C(=O)C2(NN=C(c3ccccc3)S2)c2ccccc21` (stereo not shown) [Compound 41, 1-allyl-5′-phenyl-3′H-spiro[indole-3,2′-[1,3,4]thiadiazol]-2(1H)-one], for which, under setting [1], the pIC50 is 5.31.

As to `CC(C)N1C(=O)C2(NN=C(c3ccccc3)S2)c2ccccc21` (stereo not shown) [Compound 42, 1-isopropyl-5′-phenyl-3′H-spiro[indole-3,2′-[1,3,4]thiadiazol]-2(1H)-one], under setting [1], the negative-log IC50 (pIC50) is 5.52. The same measure, in the same setting: under `CCc1ccc2c(c1)C1(NN=C(c3ccc(F)cc3)S1)C(=O)N2` (stereo not shown) [Compound 43, 5-ethyl-5′-(4-fluorophenyl)-3′H-spiro[indole-3,2′-[1,3,4]thiadiazol]-2(1H)-one] stands 5.53. On to `CCc1ccc2c(c1)C1(NN=C(c3ccc(C(C)(C)C)cc3)S1)C(=O)N2` (stereo not shown) [Compound 44, 5′-(4-tert-butylphenyl)-5-ethyl-3′H-spiro[indole-3,2′-[1,3,4]thiadiazol]-2(1H)-one], for which, under setting [1], the negative logarithm of the IC50 (pIC50) is 5.78.

Regarding `CCCC(=O)N1C(=O)C2(NN=C(c3ccc(C)cc3)S2)c2cc(CC)ccc21` (stereo not shown) [Compound 45, 1-butyryl-5-ethyl-5′-(4-methylphenyl)-3′H-spiro[indole-3,2′-[1,3,4]thiadiazol]-2(1H)-one], the negative-log IC50 (pIC50) under setting [1] was 5.84. On the same count and under the same terms, under `CCCC(=O)N1C(=O)C2(NN=C(c3ccc(OC)cc3)S2)c2cc(CC)ccc21` (stereo not shown) [Compound 46, 1-butyryl-5-ethyl-5′-(4-methoxyphenyl)-3′H-spiro[indole-3,2′-[1,3,4]thiadiazol]-2(1H)-one] stands 5.82.

For the compound `CCc1ccc2c(c1)C1(NN=C(c3ccccc3)S1)C(=O)N2` (stereo not shown) [Compound 47, 5-ethyl-5′-phenyl-3′H-spiro[indole-3,2′-[1,3,4]thiadiazol]-2(1H)-one], the “% Inhibition” value is 9.6%. As to `CCc1ccc2c(c1)C1(NN=C(c3ccc(C)cc3)S1)C(=O)N2` (stereo not shown) [Compound 48, 5-ethyl-5′-(4-methylphenyl)-3′H-spiro[indole-3,2′-[1,3,4]thiadiazol]-2(1H)-one], the “% Inhibition” value came out at 1.9%. Same read-out and setting: under `Cc1ccc(C2=NNC3(S2)C(=O)Nc2ccc(C)cc23)cc1` (stereo not shown) [Compound 49, 5-methyl-5′-(4-methylphenyl)-3′H-spiro[indole-3,2′-[1,3,4]thiadiazol]-2(1H)-one] stands 3%. The same measure, in the same setting: under `Cc1ccc(C2=NNC3(S2)C(=O)Nc2ccccc23)cc1` (stereo not shown) [Compound 50, 5′-(4-methylphenyl)-3′H-spiro[indole-3,2′-[1,3,4]thiadiazol]-2(1H)-one] stands 3.7%; under `Cc1ccc(C2=NNC3(S2)C(=O)N(C)c2ccccc23)cc1` (stereo not shown) [Compound 51, 1-methyl-5′-(4-methylphenyl)-3′H-spiro[indole-3,2′-[1,3,4]thiadiazol]-2(1H)-one], 4.6%. As for `CN1C(=O)C2(NN=C(c3ccccc3)S2)c2ccccc21` (stereo not shown) [Compound 52, 1-methyl-5′-phenyl-3′H-spiro[indoline-3,2′-[1,3,4]thiadiazol]-2-one], the pIC50 under setting [1] is 4.62.

Turning to `O=C1Nc2ccccc2C12NN=C(c1ccccc1)S2` (stereo not shown) [Compound 53, 5′-phenyl-3′H-spiro[indoline-3,2′-[1,3,4]thiadiazol]-2-one], the negative logarithm of the IC50 (pIC50) under setting [1] is 4.52.

For `O=C1Nc2ccc(Br)cc2C12NN=C(c1ccccc1)S2` (stereo not shown) [Compound 54, 5-bromo-5′-phenyl-3′H-spiro[indoline-3,2′-[1,3,4]thiadiazol]-2-one], the pIC50 under setting [1] is 4.87.

For the compound `Cc1ccc2c(c1)C1(NN=C(c3ccccc3)S1)C(=O)N2` (stereo not shown) [Compound 55, 5-methyl-5′-phenyl-3′H-spiro[indoline-3,2′-[1,3,4]thiadiazol]-2-one], under setting [1], the pIC50 was 4.95. Same read-out and setting: in the case of `CC(=O)N1C(=O)C2(NN=C(c3ccccc3)S2)c2ccccc21` (stereo not shown) [Compound 56, 1-acetyl-5′-phenyl-3′H-spiro[indoline-3,2′-[1,3,4]thiadiazol]-2-one] it was 4.90. Usually inhibition stands for the percentage by which the read-out fell short of the control. On to `CNC(=O)[C@H](Cc1ccccc1)NC(=O)[C@H](CC(C)C)[C@H](CSc1cccs1)C(=O)NO` [N2-{(2R)-2-[(1S)-1-Hydroxycarbamoyl-2-(thiophen-2-ylsulfanyl)-ethyl]-4-methyl-pentanoyl}-N-methyl-L-phenylalaninamide, reference compound], for which the inhibition at 0.01 µM (positive control at 10 nM) stood at 40%. In addition, the inhibition at 0.02 µM (positive control at 20 nM) was found to be 60%. Further, where the note is “positive control at 200 nM”, the inhibition at 0.2 µM amounted to 100%. Also, under “positive control, read-out: Agg2 IC50”, the pIC50 was 7.44. For the compound “ethyl [5′-(4-methoxyphenyl)-2-oxo-3′H-spiro[indole-3,2′-[1,3,4]thiadiazol]-1(2H)-yl]acetate [Compound 9]”, the negative logarithm of the IC50 (pIC50) under setting [1] is 5.43.

The values above are taken from patent US20080125469A1, “Thiadiazole compounds and methods of use thereof” (Wyeth, priority 2006, published 2008).
